# Experimental data: US6531148B1, “Therapeutic agents” (Takara Shuzo Co., Ltd., priority 1998, dated 2003)
# Read-outs that look alike come from different tables or passages of the source.
# Tests used:
# Format in all cases: cell-based
# [1] = tested on: Mouse melanoma cell B16BL6; test: Melanogenesis inhibition test; conditions: B16BL6, absorbance at 400 nm
# Procedure: Mouse melanoma cell B16BL6 suspended in RPMI 1640 medium containing 10% fetal bovine serum was dispensed into a 6-well plate at 5×10^4 cells/well/2 ml medium and the plate was incubated at 37° C. On the 2nd day, 100 μl of a DGE solution (2 mg/ml to 0.2 mg/ml) was added thereto. On the 7th day, the medium was exchanged and, at the same time, 100 μl of the DGE solution (2 mg/ml to 0.2 mg/ml) was added thereto. On the 8th day, the cells were harvested. After DNA, RNA and protein were digested, the absorbance at 400 nm was measured to determine an activity of inhibiting melanogenesis.
# Briefly, after removing the medium by aspiration, 0.3 ml of 0.25% trypsin dissolved in 20 mM EDTA solution was added to each well and the plate was incubated at 37° C. for 10 minutes. 2 ml of fresh medium was then added to the well and the cells were suspended. The suspension was transferred to a tube. After the medium was removed by centrifugation, the cells were suspended in 2 ml of PBS and centrifuged again. After the supernatant was removed, 30 μl of 50 mM sodium acetate buffer (pH 5.0) containing 5 mM manganese chloride and 1 μl of 70,000 U/ml DNase I (Takara Shuzo) were added to the cells. The mixture was mixed thoroughly and then incubated at 37° C. for 2 hours to digest DNA. 1 μl of 10 mg/ml ribonuclease A (Sigma) was then added to the mixture and the resultant mixture was incubated at 50° C. for 1 hour to digest RNA. Finally, 100 mM Tris-hydrochloride buffer (pH 7.8) containing 100 μg/ml proteinase K (Sigma), 0.1% Triton X and 10 mM EDTA was added thereto to make the total volume to 200 μl for 2×10^6 cells. After the mixture was incubated at 37° C. for 16 hours, the absorbance at 400 nm was measured.
# [2] = tested on: Salmonella typhimulium TA1535/pSK1002
# Procedure: An antimutagenic activity was determined according to a method for detecting an environmental mutagen by the umu test, which can determine mutagenicity with reference to the β-galactosidase activity (Mutation Research, 147: 219 (1985)). Briefly, 25 μl of mutagen [mitomycin C (a DNA crosslinker) at 10 μg/ml or 4-nitroquinoline-1-oxide (NQO, a DNA methylating agent) at 7 μg/ml] was added to 50 μl of DGE solution at a varying concentration (1.0, 5.0, 10 or 15 mM). A culture of Salmonella typhimulium TA1535/pSK1002 in TGA medium at OD600 of 0.12 was added to the mixture to make the final volume to 1.5 ml. The mixture was then incubated at 37° C. for 2 hours with shaking. 200 μl of the culture was used to measure the β-galactosidase activity according to the method of Miller [Experiments in molecular genetics, pp. 352 (1972)].
# [3] = tested on: prostaglandin E2 production induced by LPS in RAW264.7 cells; test: Prostaglandin E2 production inhibition test
# Procedure: RAW264.7 cells were suspended in Dulbecco's modified Eagle's medium containing 10% fetal bovine serum at a concentration of 3×10^5 cells/ml. 500 μl of the suspension was added to each well of a 48-well microtiter plate and the plate was incubated at 37° C. for 6 hours in the presence of 5% CO2. 10 μl of an aqueous solution prepared by dissolving DGE at a concentration of 0.5 mM in water and sterilizing it by filtration was added to the well. The plate was incubated for additional 0.5 or 5 hours. 10 μl of 50 μg/ml aqueous LPS solution was then added to the well. After the plate was incubated for additional 12 hours, the amount of prostaglandin E2 was measured. As control groups, a group to which LPS was not added and a group to which DGE was not added were provided.
# After cultivation, the amount of prostaglandin E2 in the culture supernatant was measured using Prostaglandin E2 ELISA Kit (Neogen, Code. 404110). All of the measurements were carried out in triplicate.
# RAW264.7 cells were suspended in Dulbecco's modified Eagle's medium without phenol red containing 10% fetal bovine serum and 2 mM L-glutamine at a concentration of 3×10^5 cells/ml. 500 μl of the suspension was added to each well of a 48-well microtiter plate and the plate was incubated at 37° C. for 12 hours in the presence of 5% CO2. 10 μl of 50 μg/ml aqueous lipoplysaccharide solution and 10 μl of an aqueous solution prepared by dissolving DGE-GSH prepared in Example 13-(1) at a concentration of 1 mM in water and sterilizing it by filtration were then added to the well. After the plate was incubated for additional 16 hours, the amount of prostaglandin E2 was measured. As control groups, a group to which LPS was not added and a group to which DGE-GSH was not added were provided.
# After cultivation, the amount of prostaglandin E2 in the culture supernatant was measured using Prostaglandin E2 ELISA Kit (Neogen, Code. 404110).
# HL-60 cells = test: Apoptosis induction test
# Procedure: (1) HL-60 cells were cultured at 37° C. in RPMI 1640 medium (Bio Whittaker) containing 10% of fetal bovine serum (JRH), which had been treated at 56° C. for 30 minutes, and suspended in RPMI 1640 medium at a concentration of 2.5×10^5 cells/4.5 ml.
# 500 μl of at 125 μM, 250 μM, 500 μM, 1 mM, 2 mM or 4 mM aqueous DGE solution was added to 4.5 ml of the suspension. The mixtures were incubated at 37° C. for 24 hours in the presence of 5% CO2.
# The cultured cells were examined under an optical microscope.
# Measurement of apoptotic cells using FACScan as described in Saibo Kogaku, Bessatsu (Cell Technology, Suppl.) Jikken Protocol Series: Apoptosis Jikken Protocol (Experimental Protocol Series: Experimental Protocols for Apoptosis) (Shujun-sha) pp. 129-130 and analysis of DNA fragmentation as described in Bio Manual UP Series: Saishin Apoptosis Jikken-ho (Bio Manual UP Series: Current Experimental Methods for Apoptosis) (Yodo-sha) pp. 61-63 were carried out using cells cultured for 24 or 48 hours in the same manner as that described above.
# (2) A portion of the cells cultured for 24 hours as described in Example 2-(1) was stained with 0.4% Trypan Blue and examined under an optical microscope. The number of viable cells which were not stained and the number of dead cells which were stained blue were counted. The concentration of DGE that results in a viability of 50% [Viability50 (μM)] was determined to be 81.7 μM.
Compound,activity of inhibiting melanogenesis [1],"antimutagenic activity ([2]; against NQO, DGE final concentration 0.5 mM) [%]","antimutagenic activity ([2]; against mitomycin C, DGE final concentration 0.5 mM) [%]","β-Galactosidase activity ([2]; mutagen Mitomycin C, DGE final concentration 0.03 mM, without DGE 611)","β-Galactosidase activity ([2]; mutagen Mitomycin C, DGE final concentration 0.17 mM, without DGE 611)","β-Galactosidase activity ([2]; mutagen Mitomycin C, DGE final concentration 0.33 mM, without DGE 611)","β-Galactosidase activity ([2]; mutagen Mitomycin C, DGE final concentration 0.5 mM, without DGE 611)","β-Galactosidase activity ([2]; mutagen NQO, DGE final concentration 0.03 mM, without DGE 1437)","β-Galactosidase activity ([2]; mutagen NQO, DGE final concentration 0.17 mM, without DGE 1437)","β-Galactosidase activity ([2]; mutagen NQO, DGE final concentration 0.33 mM, without DGE 1437)","β-Galactosidase activity ([2]; mutagen NQO, DGE final concentration 0.5 mM, without DGE 1437)","inhibition of prostaglandin E2 production, 5 hours pre-incubation with DGE compared with 0.5 hour ([3]; DGE added before LPS)",inhibition of prostaglandin E2 production induced by LPS ([3]; ELISA),antiproliferation activity against tumor cells due to the apoptosis-inducing activity (HL-60 cells),"DNA fragmentation (HL-60 cells; 24 or 48 hours, DGE at 50 or 100 μM)","final concentration at which apoptotic cells were observed (HL-60 cells; 24 or 48 hours, FACScan) [µM]","final concentration at which condensation of nuclei, shrinking of cells and formation of apoptotic bodies were observed (HL-60 cells; 24 hours, optical microscope) [µM]","IC50 (HL-60 cells; Homo sapiens, 24 hours, Trypan Blue, read-out: Viability50, concentration that results in a viability of 50%) [µM]",antimutagenic activity [2],"prostaglandin E2 concentration in the medium ([3]; LPS, 10 μl of 1 mM DGE-GSH per 500 μl well, 16 hours, control 63.4 ng/ml, no addition 50.3 ng/ml) [ng/mL]"
"O=C1C=CC(CO)OC1O [DGE, L-glycero-1,5-epoxy-1αβ,6-dihydroxy-cis-hex-3-en-2-one]",an activity of inhibiting melanogenesis was observed,36,37,590,570,451,383,1376,1212,1038,926,stronger inhibition of prostaglandin E2 production,inhibited the prostaglandin E2 production induced by LPS,exhibited an antiproliferation activity against tumor cells,DNA fragmentation was observed,≥ 50,≥ 50,81.7,,
"O=C1C=CC(CO)OC1O [κ-DGE, D-glycero-1,5-epoxy-1αβ,6-dihydroxy-cis-hex-3-en-2-one]",also exhibited similar activities,,,,,,,,,,,,,exhibited a similar activity,,,,,also exhibited similar activities,
"5-L-glutathion-S-yl-2-hydroxy-3,7-dioxabicyclo[2.2.2]octan-1-ol [DGE-GSH]",also exhibited similar activities,,,,,,,,,,,,,,,,,,also exhibited similar activities,50.7
